Columns and labels:
Format in all cases: cell-based
[1] = system: FU-OV-1 cells (human ovarian carcinoma cells); experiment: Proliferation assay (alamarBlue) with FU-OV-1 cells
Description: (§1) The antiproliferative activities of compounds falling under formula (Ia), (Tb) and (Ic), respectively, were investigated on cells or cell lines originating from a disorder of the haematopoietic system, including the myeloid cell compartment and the lymphoid cell compartment (T-cells and B-cells), the neuroendocrine system, the cervix, the breast, the ovaries, the lung, the gastrointestinal tract, and the mucosal epithelium, as well as from the skin epithelium and from the muscle. To this end, HL-60 cells, NB-4 cells, HH cells, RPMI-8402 cells, TANOUE cells, TT cells, HeLa cells, MDA-MB-231 cells, FU-OV-1 cells, LOU-NH91 cells, 23132/87 cells, CAL-27 cells, BHY cells, SCC-25 cells, A-431 cells, human primary epidermal keratinocytes (HPEK), and C2C12 cells were seeded into 96-well plates suitable for fluorescence assays (CORNING #3598) at following initial cell numbers: 1000 cells per well for HL-60; 1000 cells per well for NB-4; 5000 cells per well for HH; 5000 cells per well for RPMI-8402; 1500 cells per well for TANOUE; 9000 cells per well for TT; 2000 cells per well for HeLa; 3000 cells per well for MDA-MB-231; 3000 cells per well for FU-OV-1; 4000 cells per well for LOU-NH91; 2000 cells per well for 23132/87; 2000 cells per well for CAL-27; 1500 cells per well for BHY; 1500 cells per well for SCC-25; 700 cells per well for A-431; 1000 cells per well for HPEK; 500 cells per well for C2-C12. […] The readout was taken with a multi-well plate-reader in the fluorescence mode with applying a filter for excitation at 560 nm (band width 10 nm) and for emission at 590 nm (band width 10 nm). […]
(§2) The assays were performed in duplicate or more replicates of independent single experiments each containing a six-fold replicate for every condition. For every individual plate, the measured fluorescence intensity values of the conditions with compound treatment were normalized against the corresponding equally weighted arithmetic mean of the fluorescence intensity values of the six DMSO treated control wells in order to obtain the relative values to a baseline level of 1.0. […]

[2] = system: LOU-NH91 cells (human lung squamous cell carcinoma cells); experiment: Proliferation assay (alamarBlue) with LOU-NH91 cells
Description: as §1, §2

[3] = system: CAL-27 cells (human tongue squamous cell carcinoma cells); experiment: Proliferation assay (alamarBlue) with CAL-27 cells; settings: read-out: Activity Range: weighted arithmetic mean (AVEw) of normalized fluorescence intensity relative to DMSO basis level 1.0
Description: The antiproliferative activities of compounds falling under formula (Ia), (Tb) and (Ic), respectively, were investigated on cells or cell lines originating from a disorder of the haematopoietic system, including the myeloid cell compartment and the lymphoid cell compartment (T-cells and B-cells), the neuroendocrine system, the cervix, the breast, the ovaries, the lung, the gastrointestinal tract, and the mucosal epithelium, as well as from the skin epithelium and from the muscle. To this end, HL-60 cells, NB-4 cells, HH cells, RPMI-8402 cells, TANOUE cells, TT cells, HeLa cells, MDA-MB-231 cells, FU-OV-1 cells, LOU-NH91 cells, 23132/87 cells, CAL-27 cells, BHY cells, SCC-25 cells, A-431 cells, human primary epidermal keratinocytes (HPEK), and C2C12 cells were seeded into 96-well plates suitable for fluorescence assays (CORNING #3598) at following initial cell numbers: 1000 cells per well for HL-60; 1000 cells per well for NB-4; 5000 cells per well for HH; 5000 cells per well for RPMI-8402; 1500 cells per well for TANOUE; 9000 cells per well for TT; 2000 cells per well for HeLa; 3000 cells per well for MDA-MB-231; 3000 cells per well for FU-OV-1; 4000 cells per well for LOU-NH91; 2000 cells per well for 23132/87; 2000 cells per well for CAL-27; 1500 cells per well for BHY; 1500 cells per well for SCC-25; 700 cells per well for A-431; 1000 cells per well for HPEK; 500 cells per well for C2-C12. The cells were treated with compounds at indicated final concentrations (diluted from the 1000× stock-solutions in DMSO to a final DMSO concentration of 0.1% v/v in H2O (Water For Injection, WFI, Fisherscientific #10378939)) or with the empty carrier DMSO at 0.1% v/v as control for 5 days. At day 5 after starting the treatments the cells were subjected to the alamarBlue® Proliferation Assay (Bio-Rad Serotec GmbH, BUF012B) according to the protocol of the manufacturer. The readout was taken with a multi-well plate-reader in the fluorescence mode with applying a filter for excitation at 560 nm (band width 10 nm) and for emission at 590 nm (band width 10 nm). Control treatments for growth inhibition with commercial compounds such as Methotrexate (MTREX) and Resveratrol (RES) were included on every plate. Some of the test compounds of the present invention were obtained and applied as their salts. According cases are indicated in the column “Specification” in Table 30 to Table 62 and by their sum formula in Table 63.
The assays were performed in duplicate or more replicates of independent single experiments each containing a six-fold replicate for every condition. For every individual plate, the measured fluorescence intensity values of the conditions with compound treatment were normalized against the corresponding equally weighted arithmetic mean of the fluorescence intensity values of the six DMSO treated control wells in order to obtain the relative values to a baseline level of 1.0.
Two independent outlier analyses were performed according to the methods by Peirce and Chauvenet (Ross, Journal of Engineering Technology 2003, 1-12). Outliers confirmed by at least one of the methods were excluded from the calculations but not more than one value out of six per compound within a single experiment. The weighted arithmetic mean (here abbreviated as AVEw) for each compound was calculated from the normalized values over all independent replicates of the single experiments comprising the six replicates each. The corresponding standard deviation for the weighted arithmetic mean was calculated according to the method described by Bronstein et al. (Bronstein, Semendjajew, Musiol, Muhlig, Taschenbuch der Mathematik, 5th edition 2001 (German), publisher: Verlag Harri Deutsch, Frankfurt am Main and Thun) and was combined with the Gauβ′ error propagation associated with the performed calculation for the normalization. The resulting standard deviation is herein referred to as “combined standard deviation”. […]

[4] = system: HeLa cells (human cervical adenocarcinoma cells); experiment: Proliferation assay (alamarBlue) with HeLa cells
Description: as §1, §2

Compound: Oc1ccc(C=Cc2cc(O)cc(O)c2)cc1 [RES, resveratrol, reference compound]
- Activity Range: weighted arithmetic mean (AVEw) of normalized fluorescence intensity relative to DMSO basis level 1.0 ([1]; 20 μM): 0.7 ± 0.0
- Activity Range: weighted arithmetic mean (AVEw) of normalized fluorescence intensity relative to DMSO basis level 1.0 ([1]; control at 40 μM): 0.4 ± 0.0
- Activity Range: weighted arithmetic mean (AVEw) of normalized fluorescence intensity relative to DMSO basis level 1.0 ([2]; 20 μM): 0.9 ± 0.1
- Activity Range: weighted arithmetic mean (AVEw) of normalized fluorescence intensity relative to DMSO basis level 1.0 ([2]; control at 40 μM): 0.7 ± 0.0
- activity at 20 µM [3]: 80 ± 10%
- Activity Range: weighted arithmetic mean (AVEw) of normalized fluorescence intensity relative to DMSO basis level 1.0 ([4]; compound at 20 μM): 0.9 ± 0.0
- Activity Range: weighted arithmetic mean (AVEw) of normalized fluorescence intensity relative to DMSO basis level 1.0 ([4]; control at 40 μM): 0.4 ± 0.1

Source: patent publication US20240140895A1, “NOVEL AROMATIC MOLECULES” (XENIOPRO GmbH, priority 2018, published 2024)
